Laboratory results reported in ChEMBL document CHEMBL4334536, “PROTAC-Mediated Degradation of KRAS Protein for Anticancer Therapeutics” (ACS Med Chem Lett, 2020).

Experiments:
Format in all cases: cell-based
[1] = test system: NCI-H2030 [G12C]; assay: Protac activity at E3 ubiquitin ligase/KRAS G12C mutant in human NCI-H2030 cells assessed as maximal KRAS degradation at 1 uM after 24 hrs by Western blot analysis relative to control
[2] = test system: NCI-H2030 [G12C]; assay: Protac activity at E3 ubiquitin ligase/KRAS G12C mutant in human NCI-H2030 cells assessed as maximal KRAS degradation at 3 uM after 24 hrs by Western blot analysis relative to control
[3] = test system: NCI-H2030 [G12C]; assay: Protac activity at E3 ubiquitin ligase/KRAS G12C mutant in human NCI-H2030 cells assessed as maximal KRAS degradation at 0.3 uM after 24 hrs by Western blot analysis relative to control

NCI-H2030 [G12C], sequence (as listed by the source, stated change not applied): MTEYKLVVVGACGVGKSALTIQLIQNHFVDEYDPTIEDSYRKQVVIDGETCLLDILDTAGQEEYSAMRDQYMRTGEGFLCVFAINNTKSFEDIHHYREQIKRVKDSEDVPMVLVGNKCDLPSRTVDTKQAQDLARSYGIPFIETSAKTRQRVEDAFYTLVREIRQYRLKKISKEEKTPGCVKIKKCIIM

C=CC(=O)N1CCN(c2nc(NCCC(=O)N(C)CCOCCOCCOCCOCC(=O)N[C@H](C(=O)N3C[C@H](O)C[C@H]3C(=O)N[C@@H](C)c3ccc(-c4scnc4C)cc3)C(C)(C)C)nc3c(F)c(-c4cc(O)cc5ccccc45)c(Cl)cc23)CC1
Emax [1]: > 50% | Emax [2]: > 50% | Emax [3]: < 25%

CCC(=O)N1CCN(c2nc(NCCC(=O)N(C)CCOCCOCCOCCOCCOc3ccc4c(c3)CN(C3CCC(=O)NC3=O)C4=O)nc3c(F)c(-c4cc(O)cc5ccccc45)c(Cl)cc23)CC1 (stereo not drawn)
Emax [1]: 25 to 50% | Emax [2]: 25 to 50% | Emax [3]: < 25%

C=CC(=O)N1CCN(c2nc(NCCC(=O)N(C)CCOCCOCCOCC(=O)N[C@H](C(=O)N3C[C@H](O)C[C@H]3C(=O)N[C@@H](C)c3ccc(-c4scnc4C)cc3)C(C)(C)C)nc3c(F)c(-c4cc(O)cc5ccccc45)c(Cl)cc23)CC1
Emax [1]: 25 to 50% | Emax [2]: 25 to 50% | Emax [3]: < 25%

C=CC(=O)N1CCN(c2nc(NCCC(=O)N(C)CCOCCOCCOCCOCCOCC(=O)N[C@H](C(=O)N3C[C@H](O)C[C@H]3C(=O)N[C@@H](C)c3ccc(-c4scnc4C)cc3)C(C)(C)C)nc3c(F)c(-c4cc(O)cc5ccccc45)c(Cl)cc23)CC1
Emax [1]: > 50% | Emax [2]: > 50% | Emax [3]: < 25%

C=CC(=O)N1CCN(c2nc(NCCC(=O)N(C)CCOCCOCCOCCNc3cccc4c3C(=O)N(C3CCC(=O)NC3=O)C4=O)nc3c(F)c(-c4cc(O)cc5ccccc45)c(Cl)cc23)CC1 (stereo not drawn)
Emax [1]: 25 to 50% | Emax [2]: 25 to 50% | Emax [3]: < 25%

CCC(=O)N1CCN(c2nc(NCCC(=O)N(C)CCOCCOCCOCCOCC(=O)N[C@H](C(=O)N3C[C@H](O)C[C@H]3C(=O)N[C@@H](C)c3ccc(-c4scnc4C)cc3)C(C)(C)C)nc3c(F)c(-c4cc(O)cc5ccccc45)c(Cl)cc23)CC1
Emax [1]: < 25% | Emax [2]: < 25% | Emax [3]: < 25%
